Experiments:
[1] = target: T1, Human immunodeficiency virus type 1 integrase (Human immunodeficiency virus 1, UniProt Q7ZJM1)
Description: Compound was evaluated for the inhibitory concentration against HIV-1 integrase by radiolabeled oligonucleotide-based assay 3''-processing

[2] = system: CEM-SS; assay: Compound was evaluated for the effect of Order of Addition on Cytoprotection against HIV1-RF at dilution 333,Pretreat and add 1 uM; format: functional, Homo sapiens
[3] = system: MT4; assay: Concentration of compound required to protect 50% of MT-4 cells against retroviral cytopathic effects of HIV-2 (ROD); format: functional, cell-based; conditions: Homo sapiens
[4] = system: CEM-SS; assay: Compound was evaluated for the cytoprotection of CEM-SS cells by XTT cytoprotection assay through the NCI AIDS Screen; format: functional, cell-based; conditions: Homo sapiens
[5] = system: CEM-SS; assay: Compound was evaluated for the effect of Order of Addition on Cytoprotection against HIV1-RF at dilution 333, Pretreat with 100 uM
[6] = system: MT4; assay: Concentration of compound required to protect 50% of MT-4 cells against retroviral cytopathic effects of HIV-1 ([…]); format: functional, cell-based; conditions: Homo sapiens
[7] = system: CEM-SS; assay: Compound was evaluated for the effect of Order of Addition on Cytoprotection against HIV1-RF at dilution 1000, Pretreat and add 10 uM; format: functional, Homo sapiens
[8] = system: CEM-SS; assay: Compound was evaluated for the effect of Order of Addition on Cytoprotection against HIV1-RF at dilution 333, Add at infection; format: functional, Homo sapiens
[9] = target: T1, Human immunodeficiency virus type 1 integrase; remark: listed apart in the source
Description: Inhibition of HIV-1 integrase by radiolabeled oligonucleotide-based assay integration

[10] = Compound was evaluated for the relative inhibition of Viral infection in MAGI cells at concentration 100 mM, using assay 1; format: functional, Homo sapiens
[11] = system: CEM-SS; assay: Concentration of compound required to protect 50% of CEM-SS cells against retroviral cytopathic effects of HIV-RF on 9th day at dil 1:200; format: functional, cell-based; conditions: Homo sapiens
[12] = system: CEM-SS; assay: Compound was evaluated for the effect of Order of Addition on Cytoprotection against HIV1-RF at dilution 1000, Add at infection; format: functional, Homo sapiens
[13] = system: CEM-SS; assay: Concentration of compound required to protect 50% of CEM-SS cells against retroviral cytopathic effects of HIV-RF on 3rd day at dil 1:50; format: functional, cell-based; conditions: Homo sapiens
[14] = system: CEM-SS; assay: Compound was evaluated for the effect of Order of Addition on Cytoprotection against HIV1-RF at dilution 1000, Pretreat with 100 uM; format: functional, Homo sapiens
[15] = system: CEM-SS; assay: Concentration of compound required to protect 50% of CEM-SS cells against retroviral cytopathic effects of HIV-RF on 3rd day at dil 1:100; format: functional, cell-based; conditions: Homo sapiens
[16] = system: CEM-SS; assay: Concentration of compound required to protect 50% of CEM-SS cells against retroviral cytopathic effects of HIV-RF on 6th day at dil 1:100; format: functional, cell-based; conditions: Homo sapiens
[17] = Compound was evaluated for the relative Viral infection in MAGI cells at concentration 100 mM, using assay 2
[18] = system: CEM-SS; assay: Concentration of compound required to protect 50% of CEM-SS cells against retroviral cytopathic effects of HIV-RF on 3rd day at dil 1:200; format: functional, cell-based; conditions: Homo sapiens
[19] = Compound was evaluated for the relative inhibition of Viral infection in MAGI cells at concentration 0.1 uM, using assay 3
[20] = Compound was evaluated for the relative inhibition of Viral infection in MAGI cells at concentration 10 mM, using assay 3; format: functional, Homo sapiens
[21] = system: CEM-SS; assay: Compound was evaluated for the effect of Order of Addition on Cytoprotection against HIV1-RF at dilution 100, Add at infection; format: functional, Homo sapiens
[22] = system: CEM-SS; assay: Concentration of compound required to protect 50% of CEM-SS cells against retroviral cytopathic effects of HIV-RF on 6th day at dil 1:200; format: functional, cell-based; conditions: Homo sapiens
[23] = system: CEM-SS; assay: Compound was evaluated for the effect of Order of Addition on Cytoprotection against HIV1-RF at dilution 100, Pretreat and add 10 uM; format: functional, Homo sapiens
[24] = system: CEM-SS; assay: Concentration of compound required to protect 50% of CEM-SS cells against retroviral cytopathic effects of HIV-RF on 9th day at dil 1:100; format: functional, cell-based; conditions: Homo sapiens
[25] = system: MT4; assay: Concentration of compound required to reduce MT-4 cell viability by 50%; format: functional, cell-based; conditions: Homo sapiens
[26] = Compound was evaluated for the relative inhibition of Viral infection in MAGI cells at concentration 1 mM, using assay 1; format: functional, Homo sapiens
[27] = Compound was evaluated for the relative inhibition of Viral infection in MAGI cells at concentration 10mM, using assay 2; format: functional, Homo sapiens
[28] = system: CEM-SS; assay: Compound was evaluated for the effect of Order of Addition on Cytoprotection against HIV1-RF at dilution 100, Pretreat with 100 uM; format: functional, Homo sapiens
[29] = system: CEM-SS; assay: Compound was evaluated for the effect of Order of Addition on Cytoprotection against HIV1-RF at dilution 100, Pretreat and add 1 uM; format: functional, Homo sapiens
[30] = Compound was evaluated for the relative inhibition of Viral infection in MAGI cells at concentration 10 mM, using assay 1; format: functional, Homo sapiens
[31] = system: CEM-SS; assay: Concentration of compound required to protect 50% of CEM-SS cells against retroviral cytopathic effects of HIV-RF on 9th day at dil 1:50; format: functional, cell-based; conditions: Homo sapiens
[32] = system: CEM-SS; assay: Concentration of compound required to protect 50% of CEM-SS cells against retroviral cytopathic effects of HIV-RF on 6th day at dil 1:50; format: functional, cell-based; conditions: Homo sapiens
[33] = system: CEM-SS; assay: Concentration of compound required to protect 50% of CEM-SS cells against retroviral cytopathic effects of HIV-RF on 9th day at dil 1:400; format: functional, cell-based; conditions: Homo sapiens
[34] = system: CEM-SS; assay: Compound was evaluated for the effect of Order of Addition on Cytoprotection against HIV1-RF at dilution 1000, Pretreat and add 1 uM; format: functional, Homo sapiens
[35] = system: CEM-SS; assay: Compound was evaluated for the effect of Order of Addition on Cytoprotection against HIV1-RF at dilution 333, Pretreat and add 10 uM; format: functional, Homo sapiens
[36] = system: CEM-SS; assay: Concentration of compound required to protect 50% of CEM-SS cells against retroviral cytopathic effects of HIV-RF on 6th day at dil 1:400; format: functional, cell-based; conditions: Homo sapiens
[37] = system: MT4; assay: Concentration of compound required to protect 50% of MT-4 cells against retroviral cytopathic effects by HIV-1 ([…]); format: functional, cell-based; conditions: Homo sapiens
[38] = system: CEM-SS; assay: Compound was evaluated for the cytoprotection by XTT cytoprotection assay through the NCI AIDS Screen; format: functional, cell-based; conditions: Homo sapiens
[39] = Compound was evaluated for the relative inhibition of Viral infection in MAGI cells at concentration 0.1 mM, using assay 3; format: functional, Homo sapiens
[40] = system: MT4; assay: Concentration of compound required to protect 50% of MT-4 cells against retroviral cytopathic effects by HIV-2 (ROD); format: functional, cell-based; conditions: Homo sapiens
[41] = system: CEM-SS; assay: Compound was evaluated for the cytoprotection of CEM-SS cells by XTT cytoprotection assay through the NCI AIDS Screen (EC50); format: functional, cell-based; conditions: Homo sapiens
[42] = system: CEM-SS; assay: Compound was evaluated for the cytoprotection of CEM-SS cells by XTT cytoprotection assay through the NCI AIDS Screen (IC50); format: functional, cell-based; conditions: Homo sapiens
[43] = system: CEM-SS; assay: Compound was evaluated for the effect of Order of Addition on Cytoprotection against HIV-1RF at dilution 333, Pretreat with 100 uM; format: functional, Homo sapiens
[44] = system: CEM-SS; assay: Compound was evaluated for the effect of Order of Addition on Cytoprotection against HIV-1RF at dilution 333, Add at infection; format: functional, Homo sapiens
[45] = system: CEM-SS; assay: Compound was evaluated for the effect of Order of Addition on Cytoprotection against HIV-1RF at dilution 100, Pretreat with 100 uM; format: functional, Homo sapiens
[46] = system: CEM-SS; assay: Compound was evaluated for the effect of Order of Addition on Cytoprotection against HIV-1RF at dilution 1000, Add at infection; format: functional, Homo sapiens
[47] = system: CEM-SS; assay: Compound was evaluated for the effect of Order of Addition on Cytoprotection against HIV-1RF at dilution 100, Add at infection; format: functional, Homo sapiens
[48] = system: CEM-SS; assay: Compound was evaluated for the effect of Order of Addition on Cytoprotection against HIV-1RF at dilution 1000, Pretreat with 100 uM; format: functional, Homo sapiens
[49] = system: CEM-SS; assay: Compound was evaluated for the effect of Order of Addition on Cytoprotection against HIV-1RF at dilution 333, Pretreat only (100 uM); format: functional, Homo sapiens
[50] = system: CEM-SS; assay: Compound was evaluated for the effect of Order of Addition on Cytoprotection against HIV-1RF at dilution 100, Pretreat only (100 uM); format: functional, Homo sapiens
[51] = system: CEM-SS; assay: Compound was evaluated for the effect of Order of Addition on Cytoprotection against HIV-1RF at dilution 1000, Pretreat only (100 uM); format: functional, Homo sapiens

T1 sequence (Q7ZJM1 whole entry): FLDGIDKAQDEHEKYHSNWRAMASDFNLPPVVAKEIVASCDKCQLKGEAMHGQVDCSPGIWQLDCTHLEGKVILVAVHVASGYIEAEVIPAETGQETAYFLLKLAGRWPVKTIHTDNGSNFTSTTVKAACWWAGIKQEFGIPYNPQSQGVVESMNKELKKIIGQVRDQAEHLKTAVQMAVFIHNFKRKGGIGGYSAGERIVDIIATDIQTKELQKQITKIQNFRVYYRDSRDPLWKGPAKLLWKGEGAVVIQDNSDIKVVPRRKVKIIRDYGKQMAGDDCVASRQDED

CC(=O)Oc1ccc(/C=C/C(=O)O[C@H](C(=O)O)[C@H](OC(=O)/C=C/c2ccc(OC(C)=O)c(OC(C)=O)c2)C(=O)O)cc1OC(C)=O
IC50 [1]: 33.3 µM | Control [2]: 57% | EC50 [3]: 5.1 µM | EC50 [4]: 21 µM | IC50 [4]: 23 µM | Control [5]: 163% | EC50 [6]: 3.9 µM | Control [7]: 38% | Control [8]: 81% | IC50 [9]: 4.6 µM | relative infection [10]: 6% | EC50 [11]: > 50 µM | Control [12]: 60% | EC50 [13]: > 50 µM | Control [14]: 51% | EC50 [15]: > 50 µM | EC50 [16]: > 50 µM | relative infection [17]: 5% | EC50 [18]: > 50 µM | relative infection [19]: 91% | relative infection [20]: 55% | Control [21]: 141% | EC50 [22]: 22.6 µM | Control [23]: 149% | EC50 [24]: > 50 µM | IC50 [25]: 60 µM | relative infection [26]: 83% | relative infection [27]: 76% | Control [28]: 120% | Control [29]: 100% | relative infection [30]: 88% | EC50 [31]: > 50 µM | EC50 [32]: > 50 µM | EC50 [33]: 29.4 µM | Control [34]: 17% | Control [35]: 39% | EC50 [36]: 19.6 µM

CC(=O)Oc1ccc(/C=C/C(=O)O[C@@H](C(=O)O)[C@@H](OC(=O)/C=C/c2ccc(OC(C)=O)c(OC(C)=O)c2)C(=O)O)cc1OC(C)=O
IC50 [1]: 9.8 µM | IC50 [4]: 50 µM | EC50 [37]: 4.1 µM | EC50 [38]: 16 µM | IC50 [9]: 6.2 µM | relative infection [10]: 4% | relative infection [17]: 2% | relative infection [39]: 85% | relative infection [20]: 42% | IC50 [25]: 47.1 µM | relative infection [26]: 48% | relative infection [27]: 50% | relative infection [30]: 73% | EC50 [40]: 10.1 µM

CC(=O)Oc1ccc(/C=C/C(=O)NCCOC(=O)/C=C/c2ccc(OC(C)=O)c(OC(C)=O)c2)cc1OC(C)=O
IC50 [1]: > 333 µM | EC50 [41]: > 15.6 µM | IC50 [9]: 100 µM | IC50 [42]: 15.6 µM

Cc1cn([C@H]2C[C@H](N=[N+]=[N-])[C@@H](CO)O2)c(=O)[nH]c1=O [ZIDOVUDINE]
EC50 [37]: 0.005 µM | Control [43]: 119% | Control [44]: 3% | Control [45]: 114% | IC50 [25]: 100 µM | Control [46]: 5% | Control [47]: 35% | Control [48]: 121%

NS(=O)(=O)c1ccc(NC(=O)c2ccccc2SSc2ccccc2C(=O)Nc2ccc(S(N)(=O)=O)cc2)cc1
Control [49]: 4% | Control [50]: 31% | Control [51]: 6%
